Laboratory results: US12595504B2, “Methods for screening compounds for bactericidal activity and for determining the sensitivity of bacterial samples” (priority 2020, dated 2026)
In brackets after ≈: the same amount, converted by molar mass. Where two headings read alike, the source gives them in different places.

What was measured:
Escherichia coli MG1655 = assay: Antibiotic MIC determination (serial twofold dilutions, OD600 during 17 hours at 37° C.); type: cell-based; details: for MIC: Escherichia coli
Protocol: The Minimal Inhibitory Concentration (MIC) of the antibiotics was determined under the same culture conditions as the tests using the ATP assay kit. […] An exponentially growing culture (OD600=0.3) was added to each well (60 μl/well) of a sterile microtiter plate containing the test concentration of antibiotic (40 μl/well). The volume was completed to 120 μl with medium and OD600 nm measurements were performed using a microtiter plate reader (Infinite 200 PRO, TECAN) during 17 hours at 37° C.
In all the following experiments, the MIC values were measured for each antibiotic with parameters such as temperature, OD600 and equipment identical to those used for the bioluminescence assay.

[1] = system: E. coli MG1655 reporter cells; type: cell-based, Escherichia coli; details: for Lag before ATP release (shortest, incompressible value): highest concentrations tested
Protocol: The classical luciferase was from Molecular Probes (ATP Determination Kit (A22066)). The thermostable luciferase was from “CheckLite AT100” (kikkoman). The Luciferin-luciferase reagents were prepared following manufacturer instructions. Bacteria from exponentially growing cultures (OD600=0.3) were added to each well (60 μl/well) of a black 96-microtiter plate (Greiner Bio-one, 655076) and 20 μl of the luciferin-luciferase reagent solution was added. The microtiter plate was incubated 5 min at 37° C. for reaction with the luciferase to eliminate traces of extracellular ATP. Then 40 μl of antibiotic solution (3 times concentrated) prepared in the culture medium were added. Bioluminescence of each well was monitored for 4 hours under shaking (218 rpm) and at 28 or 37° C., depending on the experiments (see legends of Figures). The reagent stability in presence or absence of antibiotics was checked in control experiments without bacteria but with 4 pmoles of ATP. Tests were also performed in 384-microtiter plates (Greiner Bio-one, 784076).
Aminoglycosides are bactericidal antibiotics causing translational miscoding with lethal consequences for the cell. Leakage of small molecules following an aminoglycoside shock was previously identified by different methods including radiolabelling. Therefore, the inventors investigated the response of live cells to aminoglycoside stress.

[2] = MG1655, read-out: MIC in MOPS glucose 0.4%, MOPS minimal medium glucose 0.4%, 37° C.
[3] = MG1655, LB medium, OD600 0.15 final, 37° C., read-out: MIC in LB
[4] = antibiotic at 6.25 μg/mL, LB, 37° C.
[5] = antibiotic at 12.5 μg/mL, LB, 37° C.
[6] = antibiotic at 25 μg/mL, LB, 37° C.
[7] = antibiotic at 50 μg/mL, LB, 37° C.
[8] = antibiotic at 100 μg/mL, LB, 37° C.
[9] = LB medium, OD600 0.15 final, 37° C.
[10] = MOPS minimal medium glucose 0.4%, 37° C.
[11] = antibiotic at 200 μg/mL, LB, 37° C.
[12] = antibiotic at 400 μg/mL, LB, 37° C.

CC1(C)S[C@@H]2[C@H](NC(=O)[C@H](N)c3ccccc3)C(=O)N2[C@H]1C(=O)O [Ampicillin]
MIC (Escherichia coli MG1655; [2]): 25 µg/mL (≈ 71.5 µM) | MIC (Escherichia coli MG1655; [3]): 25 µg/mL (≈ 71.5 µM) | Shape of ATP release trace ([1]; LB medium, 37° C., FIG. 8): multiphasic | Intensity of ATP release signal in minimal medium compared to rich medium (factor of decrease) ([1]; MOPS minimal medium vs LB): 10 | Lag time before ATP [1, 4]: 108 min | Lag time before ATP [1, 5]: 43 min | Lag time before ATP [1, 6]: 23 min | Lag time before ATP [1, 7]: 13 min | Lag time before ATP [1, 8]: 9 min | Lag before ATP release (shortest, incompressible value) ([1]; LB, 37° C.): 9 min

Gentamicin
MIC in LB (Escherichia coli MG1655; [9]): 5.7 µg/mL | MIC in MOPS glucose 0.4% (Escherichia coli MG1655; [10]): 0.6 µg/mL | Shape of ATP release trace ([1]; LB medium, 37° C., FIG. 8): bi-phasic | Shape of ATP release trace ([1]; MOPS minimal medium (glucose 0.4%), FIG. 11): monophasic | Lag time before ATP ([1]; antibiotic at 0.19 μg/mL, LB, 37° C.): 136.1 min | Lag time before ATP ([1]; antibiotic at 0.39 μg/mL, LB, 37° C.): 136.3 min | Lag time before ATP ([1]; antibiotic at 0.78 μg/mL, LB, 37° C.): 67.1 min | Lag time before ATP ([1]; antibiotic at 1.56 μg/mL, LB, 37° C.): 54.0 min | Lag time before ATP ([1]; antibiotic at 3.12 μg/mL, LB, 37° C.): 30.2 min | Lag time before ATP [1, 4]: 16.2 min | Lag time before ATP [1, 5]: 12.9 min

O=C(O)c1cn(C2CC2)c2cc(N3CCNCC3)c(F)cc2c1=O [Ciprofloxacin]
MIC (Escherichia coli MG1655; [2]): 6.25 µg/mL (≈ 18.9 µM) | MIC (Escherichia coli MG1655; [3]): 25 µg/mL (≈ 75.4 µM)

O=C1CN(/N=C/c2ccc([N+](=O)[O-])o2)C(=O)N1 [Nitrofurantoin]
MIC (Escherichia coli MG1655; [2]): 50 µg/mL (≈ 210 µM) | MIC (Escherichia coli MG1655; [3]): 50 µg/mL (≈ 210 µM)

Cc1cc(NS(=O)(=O)c2ccc(N)cc2)no1 [Sulfamethoxazole]
MIC (Escherichia coli MG1655; [2]): 1600 µg/mL (≈ 6320 µM)

CN[C@@H]1[C@H](O)[C@H](NC)[C@H]2O[C@@]3(O)C(=O)C[C@@H](C)O[C@H]3O[C@@H]2[C@H]1O [Spectinomycin]
MIC (Escherichia coli MG1655; [2]): 100 µg/mL (≈ 301 µM) | MIC (Escherichia coli MG1655; [3]): 50 µg/mL (≈ 150 µM) | Amplitude of ATP release ([1]; bacteriostatic antibiotics, LB, FIG. 9): very weak amplitude

C[C@@H]1O[C@@H]1P(=O)(O)O [Fosfomycin]
MIC (Escherichia coli MG1655; [2]): 100 µg/mL (≈ 724 µM) | MIC (Escherichia coli MG1655; [3]): 50 µg/mL (≈ 362 µM) | Lag time before ATP [1, 5]: 28.6 min | Lag time before ATP [1, 6]: 26.2 min | Lag time before ATP [1, 7]: 21.8 min | Lag time before ATP [1, 8]: 20.2 min | Lag time before ATP [1, 11]: 18.6 min

CC(C)(O/N=C(\C(=O)N[C@@H]1C(=O)N2C(C(=O)[O-])=C(C[n+]3ccccc3)CS[C@H]12)c1csc(N)n1)C(=O)O [Ceftazidime]
MIC (Escherichia coli MG1655; [2]): 100 µg/mL (≈ 183 µM) | MIC (Escherichia coli MG1655; [3]): 100 µg/mL (≈ 183 µM) | Lag time before ATP [1, 6]: 40.3 min | Lag time before ATP [1, 7]: 8.6 min | Lag time before ATP [1, 8]: 8.3 min | Lag time before ATP [1, 11]: 8.0 min | Lag time before ATP [1, 12]: 7.8 min

NC[C@H]1O[C@H](O[C@H]2[C@H](O)[C@@H](O[C@H]3O[C@H](CO)[C@@H](O)[C@H](N)[C@H]3O)[C@H](N)C[C@@H]2N)[C@H](O)[C@@H](O)[C@@H]1O [Kanamycin]
MIC (Escherichia coli MG1655; [2]): 3 µg/mL (≈ 6.19 µM) | MIC (Escherichia coli MG1655; [3]): 25 µg/mL (≈ 51.6 µM) | Lag time before ATP [1, 4]: 50 min | Lag time before ATP [1, 5]: 25 min | Lag time before ATP [1, 6]: 16 min | Lag time before ATP [1, 7]: 11 min | Lag time before ATP [1, 8]: 8 min | Lag before ATP release (shortest, incompressible value) ([1]; LB, 37° C.): ~4.7 min

CCn1cc(C(=O)O)c(=O)c2ccc(C)nc21 [Nalidixic acid]
MIC (Escherichia coli MG1655; MG1655, read-out: MIC in LB): 256 µg/mL (≈ 1100 µM) | MIC (Escherichia coli MG1655; MG1655, read-out: MIC in MOPS glucose 0.4%): 256 µg/mL (≈ 1100 µM) | Lag time before ATP ([1]; antibiotic at 16 μg/mL, LB, 37° C.): 127.3 min | Lag time before ATP ([1]; antibiotic at 32 μg/mL, LB, 37° C.): 114.1 min | Lag time before ATP ([1]; antibiotic at 64 μg/mL, LB, 37° C.): 88.9 min | Lag time before ATP ([1]; antibiotic at 128 μg/mL, LB, 37° C.): 79.1 min | Lag time before ATP ([1]; antibiotic at 258 μg/mL, LB, 37° C.): 50.8 min | Lag time before ATP ([1]; antibiotic at 516 μg/mL, LB, 37° C.): 46.4 min

CO[C@@]1(NC(=O)Cc2cccs2)C(=O)N2C(C(=O)O)=C(COC(N)=O)CS[C@@H]21 [Cefoxitin]
MIC (Escherichia coli MG1655; [2]): 100 µg/mL (≈ 234 µM) | MIC (Escherichia coli MG1655; [3]): 50 µg/mL (≈ 117 µM) | Lag time before ATP [1, 5]: 10.9 min | Lag time before ATP [1, 6]: 6.1 min | Lag time before ATP [1, 7]: 4.9 min | Lag time before ATP [1, 8]: 4.9 min | Lag time before ATP [1, 11]: 4.9 min

O=C(N[C@H](CO)[C@H](O)c1ccc([N+](=O)[O-])cc1)C(Cl)Cl [Chloramphenicol]
MIC (Escherichia coli MG1655; [2]): 25 µg/mL (≈ 77.4 µM) | MIC (Escherichia coli MG1655; [3]): 25 µg/mL (≈ 77.4 µM) | ATP leakage ([1]; high concentrations, twice or four times the MIC, LB, FIG. 9): important leakage

Cc1c(N)nc([C@H](CC(N)=O)NC[C@H](N)C(N)=O)nc1C(=O)N[C@H](C(=O)N[C@H](C)[C@@H](O)[C@H](C)C(=O)N[C@H](C(=O)NCCC1=N[C@@H](c2nc(C(=O)NCCCCN=C(N)N)cs2)CS1)[C@@H](C)O)[C@@H](O[C@@H]1O[C@@H](CO)[C@@H](O)[C@H](O)[C@@H]1O[C@H]1O[C@H](CO)[C@@H](O)[C@H](OC(N)=O)[C@@H]1O)c1cnc[nH]1 [Zeocin]
MIC in LB (Escherichia coli MG1655; [9]): 200 µg/mL (≈ 140 µM) | MIC in MOPS glucose 0.4% (Escherichia coli MG1655; [10]): 200 µg/mL (≈ 140 µM) | Lag time before ATP [1, 5]: 112.2 min | Lag time before ATP [1, 6]: 113.1 min | Lag time before ATP [1, 7]: 97.5 min | Lag time before ATP [1, 8]: 85.7 min | Lag time before ATP [1, 11]: 68.6 min | Lag time before ATP [1, 12]: 57.8 min | Lag time before ATP ([1]; antibiotic at 800 μg/mL, LB, 37° C.): 51.9 min

[H]/N=C(/N)N[C@H]1[C@H](O)[C@@H](O)[C@H](O[C@@H]2O[C@@H](C)[C@](O)(C=O)[C@H]2O[C@@H]2O[C@@H](CO)[C@H](O)[C@@H](O)[C@@H]2NC)[C@@H](N/C(N)=N\[H])[C@@H]1O [Streptomycin]
MIC (Escherichia coli MG1655; [2]): 6.25 µg/mL (≈ 10.7 µM) | MIC (Escherichia coli MG1655; [3]): 50 µg/mL (≈ 86 µM) | Shape of ATP release trace ([1]; LB medium, 37° C., FIG. 8): bi-phasic | Lag time before ATP [1, 5]: 39 min | Lag time before ATP [1, 6]: 21 min | Lag time before ATP [1, 7]: 16 min | Lag time before ATP [1, 8]: 12 min | Lag time before ATP [1, 11]: 10 min | Lag before ATP release (shortest, incompressible value) ([1]; LB, 37° C.): ~10 min

CCN1CCN(C(=O)N[C@@H](C(=O)N[C@@H]2C(=O)N3[C@@H]2SC(C)(C)[C@@H]3C(=O)O)c2ccccc2)C(=O)C1=O [Piperacillin]
MIC (Escherichia coli MG1655; [3]): 200 µg/mL (≈ 386 µM)

CO[C@@H]1[C@@H](OC(N)=O)[C@@H](O)[C@H](Oc2ccc3c(O)c(NC(=O)c4ccc(O)c(CC=C(C)C)c4)c(=O)oc3c2C)OC1(C)C [Novobiocin]
MIC (Escherichia coli MG1655; [3]): 200 µg/mL (≈ 326 µM)

CN(C)[C@@H]1C(O)=C(C(N)=O)C(=O)[C@@]2(O)C(O)=C3C(=O)c4c(O)cccc4[C@@](C)(O)[C@H]3C[C@@H]12 [Tetracycline]
MIC (Escherichia coli MG1655; [2]): 12.5 µg/mL (≈ 28.1 µM) | MIC (Escherichia coli MG1655; [3]): 12.5 µg/mL (≈ 28.1 µM) | High dose at which ATP release was observed ([1]; LB, FIG. 9): 4 times the MIC

C=CC1=C(C(=O)O)N2C(=O)[C@@H](NC(=O)/C(=N\OCC(=O)O)c3csc(N)n3)[C@H]2SC1 [Cefixime]
MIC (Escherichia coli MG1655; [2]): 50 µg/mL (≈ 110 µM) | MIC (Escherichia coli MG1655; [3]): 50 µg/mL (≈ 110 µM) | Lag time before ATP [1, 5]: 17.5 min | Lag time before ATP [1, 6]: 16.7 min | Lag time before ATP [1, 7]: 15.2 min | Lag time before ATP [1, 8]: 14.9 min | Lag time before ATP [1, 11]: 14.2 min
